Experimental data from paper PMC3038857, “Using Nuclear Receptor Activity to Stratify Hepatocarcinogens” (PLoS ONE, 2011).

Experiments:
Assay type in all cases: cell-based
[1] = target: T1, PPARA (peroxisome proliferator-activated receptor alpha) (Homo sapiens, UniProt Q07869); assay: ATG_PPARa_TRANS: Factorial reporter gene assay (HepG2); set-up: scale not given here; conditions: scale not given, looks like -log10 of molar active concentration, 0 = no activity
T1 construct: expressed in transfected cells; host or cells: HepG2
T1 sequence (Q07869 1-468): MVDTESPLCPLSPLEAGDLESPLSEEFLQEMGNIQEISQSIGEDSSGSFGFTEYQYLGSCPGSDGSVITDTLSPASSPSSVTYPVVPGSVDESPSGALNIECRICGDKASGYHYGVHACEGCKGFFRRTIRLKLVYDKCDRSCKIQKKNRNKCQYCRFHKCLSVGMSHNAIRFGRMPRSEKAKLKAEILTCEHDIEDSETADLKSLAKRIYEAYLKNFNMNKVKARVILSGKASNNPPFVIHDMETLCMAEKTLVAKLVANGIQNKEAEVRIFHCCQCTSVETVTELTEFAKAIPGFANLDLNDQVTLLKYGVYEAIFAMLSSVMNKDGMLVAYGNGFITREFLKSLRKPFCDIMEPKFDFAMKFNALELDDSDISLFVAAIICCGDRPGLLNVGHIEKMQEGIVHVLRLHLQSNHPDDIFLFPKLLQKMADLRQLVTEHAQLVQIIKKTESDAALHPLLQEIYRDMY
Description: A multiple reporter transcription unit (MRTU) library consisting of 48 transcription factor binding sites was transfected into the HepG2 human liver hepatoma cell line. In addition to the cis-acting reporter genes (CIS), a modification of the approach was used to generate a trans-system (TRANS) with a mammalian one-hybrid assay consisting of an additional 25 MRTU library reporting the activity of nuclear receptor super-family members. […] These assays were performed by Attagene Inc. (Morrisville NC) under contract to EPA.
In addition to the cis-acting reporter genes (CIS), a modification of the approach was used to generate a trans-system (TRANS) with a mammalian one-hybrid assay consisting of an additional 25 MRTU library reporting the activity of nuclear receptor super-family members. […] Chemicals were then tested in the CIS and TRANS assays at seven concentrations starting at the MTC and followed by three-fold serial dilutions. These assays were performed by Attagene Inc. (Morrisville NC) under contract to EPA. Detailed description of the methods, data and analysis methods for this dataset will be presented in a separate publication.

[2] = target: T2, PPARG (peroxisome proliferator-activated receptor gamma) (Homo sapiens, UniProt P37231); assay: ATG_PPARg_TRANS: Factorial reporter gene assay (HepG2); conditions: HepG2
T2 construct: expressed in transfected cells; host or cells: HepG2
T2 sequence (P37231 1-505): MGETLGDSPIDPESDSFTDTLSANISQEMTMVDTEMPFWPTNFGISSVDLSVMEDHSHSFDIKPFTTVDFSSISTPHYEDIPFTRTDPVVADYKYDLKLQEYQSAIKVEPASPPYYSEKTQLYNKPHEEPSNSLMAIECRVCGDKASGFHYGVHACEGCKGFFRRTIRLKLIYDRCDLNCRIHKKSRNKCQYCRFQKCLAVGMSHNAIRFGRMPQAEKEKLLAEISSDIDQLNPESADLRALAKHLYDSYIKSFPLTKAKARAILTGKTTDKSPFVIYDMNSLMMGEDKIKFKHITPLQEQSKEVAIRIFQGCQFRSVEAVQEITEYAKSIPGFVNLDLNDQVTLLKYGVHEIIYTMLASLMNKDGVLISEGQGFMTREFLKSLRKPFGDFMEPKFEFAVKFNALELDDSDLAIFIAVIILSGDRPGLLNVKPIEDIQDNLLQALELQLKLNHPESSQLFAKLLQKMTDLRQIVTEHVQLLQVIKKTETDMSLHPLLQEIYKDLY
Summary of the method: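 Seven concentrations per chemical, three-fold dilutions down from the MTC, were tested in HepG2 hepatoma cells. Those cells carried a multiple reporter transcription unit library, read either as cis transcription-factor-site reporters or as a trans mammalian one-hybrid panel for nuclear receptors.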

[3] = target: T3, PPARa (PPARA) (Homo sapiens, UniProt Q07869); assay: NCGC_PPARa_Agonist: GAL4 BLAM Reporter gene assay: PPARa; set-up: expressed in transfected cells; host or cells: HEK293; conditions: agonist mode; scale not given, looks like -log10 of molar active concentration; 0 = no activity
T3 sequence (Q07869 1-468): T1 sequence (Q07869 1-468)
Description: These assays measure binding constants and enzyme inhibition values for nuclear receptors. The targets include [drawing 67] , [drawing 68] , [drawing 69] , [drawing 70] , [drawing 71] , [drawing 72] , [drawing 73] , [drawing 74] , [drawing 75] and [drawing 76] . Each of the nuclear receptor targets was measured in agonist mode. Assays were run at the NIH Chemical Genomics Center (Rockville, MD).
Cell-based HTS Assays: These assays measuring binding constants and enzyme inhibition values for nuclear receptors. The targets include AR, ER, FXR, LXR, PPARα, PPARδ, PPARγ, RXRα, RXRβ and PXR. Each of the nuclear receptor targets was measured in both agonist and antagonist mode, but the antagonist data is still undergoing analysis due to possible interference between cytotoxicity and assay activity, so antagonist mode data were not used in the present analysis. Assays were run at the NIH Chemical Genomics Center (Rockville, MD) as part of the Tox21 collaboration. […] The R^2 was required to be ≥0.5. Values where only the highest concentration exceeded 50% activity were excluded to eliminate weak or false positives. Detailed description of the methods, data and analysis methods for this dataset will be presented in a separate publication.

[4] = target: T4, PXR (NR1I2) (Homo sapiens, UniProt O75469); assay: ATG_PXR_TRANS: Factorial reporter gene assay (HepG2); set-up: endogenous in cells; host or cells: HepG2; conditions: HepG2
T4 sequence (O75469 1-434): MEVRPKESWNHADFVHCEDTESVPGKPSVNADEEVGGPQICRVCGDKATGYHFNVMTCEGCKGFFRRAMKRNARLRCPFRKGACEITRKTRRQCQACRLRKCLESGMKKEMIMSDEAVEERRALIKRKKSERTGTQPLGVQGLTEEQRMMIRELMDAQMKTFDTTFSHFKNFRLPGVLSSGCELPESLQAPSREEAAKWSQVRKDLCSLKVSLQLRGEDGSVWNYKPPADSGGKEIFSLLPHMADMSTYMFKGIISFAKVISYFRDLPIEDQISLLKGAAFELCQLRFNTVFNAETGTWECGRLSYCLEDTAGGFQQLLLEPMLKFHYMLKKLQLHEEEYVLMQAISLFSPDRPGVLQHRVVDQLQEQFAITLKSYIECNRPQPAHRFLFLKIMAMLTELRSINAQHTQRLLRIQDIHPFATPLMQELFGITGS
Summary of the method: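 HepG2 cells transfected with multiplexed reporter libraries: cis-acting binding-site reporters (CIS) and a one-hybrid nuclear-receptor trans system (TRANS). Chemicals tested at seven concentrations, starting at the maximum tolerated concentration with three-fold serial dilutions.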

[5] = scale not given, looks like -log10 of molar active concentration, 0 = no activity

SMILES	ATG_PPARa_TRANS [1]	ATG_PPARg_TRANS [2, 5]	NCGC_PPARa_Agonist [3]	ATG_PXR_TRANS [4, 5]	ATG_PXR_TRANS [4]	ATG_PPARg_TRANS [2]
Nc1cnn(-c2ccccc2)c(=O)c1Cl [r56]	0	4.409	0	0		
CCC(C)n1c(=O)[nH]c(C)c(Br)c1=O (centres unmarked) [r43]	0	0	0	0		
COc1cccc(C(=O)NN(C(=O)c2cc(C)cc(C)c2)C(C)(C)C)c1C [row 202]					5.62	
CC(C)OC(=O)Nc1cccc(Cl)c1 [r59]	0	4.301	0	4.347		
CCN(CC)C(=O)C(C)Oc1cccc2ccccc12 (centres unmarked) [row 219]					5.886	4.301
N#Cc1cc(Br)c(O)c(Br)c1 [r44]	4.678	4.398	4.173	0		
CCCCOCN(C(=O)CCl)c1c(CC)cccc1CC [r46]	0	5.678	0	5.959		
CSc1nc(NC(C)C)nc(NC(C)C)n1 [r256]					4.602	4.284
CCc1cccc(C)c1N(C(=O)CCl)C(C)COC (centres unmarked) [row 208]					5.18	4.854
Cc1ccccc1CO[C@@H]1C[C@@]2(C(C)C)CC[C@]1(C)O2 [r64]	0	4.377	0	5.18		
COc1nc(C)nc(NC(=O)NS(=O)(=O)c2ccccc2Cl)n1 [r62]	0	0	0	0		
CC(C)(c1ccc(O)cc1)c1ccc(O)cc1 [r40]	0	4.569	0	4.854		
CC(C)N1C(=O)c2ccccc2NS1(=O)=O [r37]	0	0	0	4.328		
CNC(=O)Oc1cccc2ccccc12 [r52]	0		0	0		
C#CCC1=C(C)[C@H](OC(=O)[C@H]2[C@H](C=C(C)C)C2(C)C)CC1=O [r249]					5.444	4.357
OB(O)O [r41]	0	0	0	0		
CCOC(=O)C(Cl)Cc1cc(-n2nc(C)n(C(F)F)c2=O)c(F)cc1Cl (centres unmarked) [r54]	0	4.319	0	4.367		
